Data taken from patent US8709976B2, “Anthranilic diamide compositions for propagle coating” (E I du Pont de Nemours and Company, priority 2010, dated 2014).

Experiment: Corn greenhouse trial: uptake of Compound 2 into leaves from coated seeds
Conditions: corn (maize), in vivo
Procedure: Plant leaves were macerated using a Geno/Grinder 2000 bead beater homogenizer (SPEX CertiPrep, Metuchen, N.J., USA), and then acetonitrile (˜5 mL/g of leaf tissue) was added. The mixture was further shaken for 1 minute using the Geno/Grinder homogenizer, and then centrifuged. The acetonitrile extract supernatant was analyzed by high performance liquid chromatography with tandem mass spectrometry detection (HPLC/MS/MS) using a Waters (Milford, Mass. USA) Alliance HT2795 chromatograph and Zorbax SB C18 (2.1×50 mm, 5 microns) column eluted with mixtures of water and acetonitrile containing 0.1% (volume/volume) of formic acid, with detection by a Waters Quattro Micro API Mass Spectrometer using electrospray ionization (ESI+). Standard solutions of Compound 1 and Compound 2 were prepared by adding measured amounts of stock solutions of Compound 1 or Compound 2 in acetonitrile or tetrahydrofuran to acetonitrile extracts of leaves from plants grown from untreated seeds.
For corn and Compound 2, a 1:1 weight ratio of nonionic fatty alcohol ethoxylate with Compound 2 was prepared with each additive by mixing the appropriate amount of either 16.7 wt % or 20.0 wt % solution in water of the nonionic fatty alcohol ethoxylate with 1.0 g of Compound 2.
Into a FlackTek™ Max 100 disposable plastic cup were placed 35.0 grams (100 seeds) of corn seeds. […]

With CNC(=O)c1cc(Cl)cc(C)c1NC(=O)c1cc(Br)nn1-c1ncccc1Cl [Compound 2, 3-bromo-N-[4-chloro-2-methyl-6-[(methylamino)carbonyl]phenyl]-1-(3-chloro-2-pyridinyl)-1H-pyrazole-5-carboxamide] the “Uptake microgram/g of leaf” value was 0.42 microgram/g of leaf.
